Experimental data published in patent US4138485A, “Phenylalanine derivatives” (Kyowa Hakko Kogyo Kabushiki Kaisha, priority 1976, dated 1979).
Read-outs that look alike come from different tables or passages of the source.

Columns and labels:
Acute toxicity in mice = conditions: in vivo, mouse
Procedure: (§1) (1) Acute toxicity and tonic convulsion in hind paw:
(§2) The acute toxicity and tonic convulsion occured by stimulus by hand touch were determined in the following manner to give the results shown in Table 2.
(a) Acute toxicity in mice:
38 Groups, each consisting of 5 mice (male dd-strain, weight -- 18 to 24 g), were used for the test and control groups. The compounds shown in Table 2 were administered orally or intraperitoneally to the mice. After one week, the survival ratio was measured.

Mouse = assay: Tonic convulsion of hind paw of mice (stimulus by hand touch); type: in vivo, mice (male dd-strain); conditions: oral, D = 1000 mg/kg, 30 to 360 minutes
Procedure: as §1, §2
(c) Tonic convulsion of hind paw of mice:
38 Groups, each consisting of 5 mice (male dd-strain, weight -- 18 to 24 g), were used for the test and control groups. The compounds shown in Table 2 were orally administered to the mice. At 30, 60, 120, 180 and 360 minutes after the administration, stimulus by hand touch was given to the mice and the tonic convulsion was observed.

[1] = system: hyperlipemia induced by Triton; assay: Cholesterol-lowering activity on hyperlipemia induced by Triton in mice; type: in vivo, mice (male dd-strain); conditions: Mus musculus, read-out: Ratio of the reduction of cholesterol
Procedure: (2) Cholesterol-Lowering activity on hyperlipemia induced by Triton in mice:
38 Groups, each consisting of 9 mice (male dd-strain, weight -- 19 to 21 g), were used for the test and control groups. […] Immediately after the administration and also after 20 hours from the administration of Triton, the mice were orally administered with 100 mg/kg of the compound shown in Table 3. 43 hours after the administration of Triton, the blood samples were collected by decapitation and then the corpuscle was removed by centrifugation. Cholesterol in the serum was determined by Zurkowski's method modified by Shibata (color of the test solution was developed by using sulfoalicyclic acid, acetic acid and sulfuric acid and the optical density of the solution was determined at 620 mμ.

Cholesterol in the serum = assay: Cholesterol-lowering activity on normal rats of Wistar strain (serum cholesterol, liver weight); type: in vivo, rats (male Wistar strain); conditions: 0.3% in diet; for B - Ratio of decrease of liver weight: continuous administration for 4 days; for C - Ratio of decrease of cholesterol / D - Ratio of increase of liver weight: continuous administration for 14 days
Procedure: (3) Cholesteral-lowering activity on normal rats of Wistar strain:
(i) 22 Groups, each consisting of 5 rats (male Wistar strain, weight -- 150 to 180 g) were used for the test and control groups. After this, the blood samples were collected by decapitation and then the corpuscle was removed by centrifugation. Cholesterol in the serum was determined by Zurkowski's method modified by Shibata and also the liver was excised and weighed. The results are shown in Table 4 wherein the ratio of 100% denotes the amount of chloresterol and the weight of the liver of normal rats fed with powdery diet without the addition of the compound.

[2] = system: cholesterol and triglyceride in the serum; assay: Lipid lowering activity in cynomolgus monkeys; type: in vivo, cynomolgus monkeys (male, born in Malaysia); conditions: 100 mg/kg/day oral, 10 days; for Decrease Ratio of Cholesterol / Decrease Ratio of Triglyceride: average of 3 times cross-over
Procedure: (6) Lipid lowering activity in cynomolgus monkeys:
6 cynomolgus monkeys (male, born in Malaysia, weight -- 2.5 to 3.9 kg) were used for this test. All monkies were breeded in individual cages at a temperature from 23° to 25° C. and fed with a solid diet for monkey (available from Oriental Yeast K.K., Japan) and sweet potatoes every morning and with apples and bananas from time to time. The monkeys were divided into 3 groups, each consisting of 2 monkeys, to orally and compulsively administer the test compound in an amount of 100 mg/kg/day once in every morning for 10 days. At 11 days after the first administration, before feeding the diet in early morning blood samples were collected from the saphenae of the monkeys to determine cholesterol and triglyceride in a similar manner to that described above. The ratio of lowering cholesterol (RCL) or triglyceride (RLT) was calculated by the following formula. [formula] wherein A is the average amount of the cholesterol or triglyceride in the serum before administration, and B is the corresponding amont after administration for 10 days.
After an interval of 5 weeks, another compound was administered to determine cholesterol or triglyceride in a similar manner to that described above. After a further interval of 5 weeks, a similar procedure was repeated by using another compound to determine cholesterol or triglyceride.

[3] = system: glycerol induced hyperlipemia; assay: Lipid lowering effects on glycerol induced hyperlipemia in rats; type: in vivo, rats (male Wistar strain); conditions: 0.25% in diet; for Cholesterol / Cholesterol, Ratio of decrease / Triglyceride / Triglyceride, Ratio of decrease: serum, 15% glycerol in water
Procedure: (5) Lipid lowering effects on glycerol induced hyperlipemia in rats: The test was carried out in a similar method to that by […] et al [Life Science, 3, 1021 (1964)] . A group consisting of 10 rats (male Wistar strain, weight - 190 to 210 g) was used for each of the test and control groups. Hyperlipemia occurred by feeding the rats ad libitum with water containing 15% (by volume) of glycerol. […] After this, the blood samples were collected by decapitation and the serum was separated by centrifugation.

[4] = system: hyperlipemia induced by Triton; assay: Effect on hyperlipemia induced by Triton in rats: activity in the decreasing phase; type: in vivo, rats (male Wistar strain); conditions: for activity in the decreasing phase (in words): compared with Clofibrate; for Cholesterol / Cholesterol, Ratio of decrease / Triglyceride / Triglyceride, Ratio of decrease: serum, decreasing phase, 200 mg/kg oral 25 hours after Triton, sampled at 30 hours
Procedure: (§3) (4) Effect on hyperlipemia induced by Triton in rats:
(§4) 3 Groups, each consisting of 9 rats (male Wistar strain, weight -- 200 to 240 g) fasted for 24 hours were used for this test. Each rat was administered intravenously with 200 mg/kg of Triton (WR-1339), followed by oral administration of 200 mg/kg of the compounds shown in Table 6. After 20 hours from the administration, the blood samples were collected by decapitation. Cholesterol and triglyceride in the serum were determined in a similar manner to that used in (2, ii) to give the results shown in Table 6.
(II) Activity in the decreasing phase:
Hyperlipemia occurred by administering Triton (WR-1339) in a similar manner to that in (i). After 25 hours, 200 mg/kg of the compounds were orally administered to the rats. After 30 hours from the injection of Triton, the blood samples were collected by decapitation.

Acute toxicity in rats = conditions: in vivo, rat
Procedure: as §1, §2
(b) Acute toxicity in rats:
28 Groups, each consisting of 5 rats (male Wistar strain, weight -- 200 g), were used for the test and control groups. The compounds shown in Table 2 were orally administered to the rats. After one week, the survival ratio was measured.

[5] = system: hyperlipemia induced by Triton; assay: Effect on hyperlipemia induced by Triton in rats: activity in the increasing phase; type: in vivo, rats (male Wistar strain); conditions: for activity in the developing phase (in words): Clofibrate, Compounds 1 and 2 compared with each other; for Cholesterol / Cholesterol, Ratio of decrease / Triglyceride / Triglyceride, Ratio of decrease: serum, increasing phase, 200 mg/kg oral, 20 hours
Procedure: as §3
(i) Activity in the increasing phase:
as §4

[6] = system: Triglyceride, phospholipid and free fatty acid in the serum; assay: Determination of triglyceride, phospholipid and free fatty acid in the serum of normal rats; type: in vivo, rats (Wistar strain); conditions: for A - Ratio of decrease of triglyceride / B - Ratio of decrease of phospholipid / C - Ratio of decrease of free fatty acid: continuous administration for 4 days; for lowering activity on lipids other than cholesterol (in words): normal rats, 4 days
Procedure: (ii) Determination of triglyceride, phospholipid and free fatty acid in the serum of normal rats of Wistar strain: Clofibrate and Compounds 1 and 2 were tested in a similar manner to that described in (i). Triglyceride, phospholipid and free fatty acid in the serum were determined in the following manner to give the results shown in Table 5. (a) Determination of triglyceride: Triglyceride was determined by acetylacetone method [Kazuo Matsumiya et al "Rinsho Byori", Vol. 18, page 383 (1970), Japan] in the following manner. Isopropyl alcohol was added to the test solution of the serum to extract triglyceride which was then saponified with potassium hydroxide to give glycerol. The glycerol was oxidized by using sodium salt of methaperiodic acid to convert it into formaldehyde. Color of the test solution was developed by acetylacetone and the optical density at 420 mμ was determined. (b) Determination of phospholipid: "Phospholipid Test Wako", a reagent available from Wako Junyaku K.K., Japan, was used for the determination of phospholipid in the following manner according to a similar manner to that described in "Rinsho Byori", Vol. 17, page 389 (1969), Japan, by Atsuo […] et al. Trichloroacetic acid was added to the serum to give precipitates of lipoprotein which were then added with sulfuric acid and potassium permanganate to form phosphoric acid. Color of the test solution was developed by ammonium molybdate and the optical density was determined at 660 mμ. (c) Determination of free fatty acid: Laurell's method [CLin. Chim. Acta. 16, 57 (1967)] was used for determination in the following manner. […] After shaking for 5 minutes, the solution was centrifuged. 5 Ml of the supernatant was put into another tube and was added with 2 ml of copper reagent. […] The optical density at 550 mμ was determined.

[7] = oral administration, after one week, read-out: Acute Toxicity (LD50), A
[8] = ip, intraperitoneal administration, after one week, read-out: Acute Toxicity (LD50), B
[9] = oral administration, after one week, read-out: Acute Toxicity (LD50), C

Row | SMILES | LD50 at 168 h (Acute toxicity in mice; [7]) [mg/kg] | inhibition in vivo at 100 mg/kg ([1]; po, 43 h) [%] | B - Ratio of decrease of liver weight (Cholesterol in the serum) [%] | C - Ratio of decrease of cholesterol (Cholesterol in the serum) [%] | D - Ratio of increase of liver weight (Cholesterol in the serum) [%] | cholesterol-lowering activity (in words) [2] | Decrease Ratio of Cholesterol [2] [%] | Decrease Ratio of Triglyceride [2] [%] | activity on lowering triglyceride and cholesterol (in words) [3] | Cholesterol [3] [mg/dL] | Cholesterol, Ratio of decrease [3] [%] | Triglyceride [3] [mg/dL] | Triglyceride, Ratio of decrease [3] [%] | Cholesterol [4] [mg/dL] | Cholesterol, Ratio of decrease [4] [%] | Triglyceride [4] [mg/dL] | Triglyceride, Ratio of decrease [4] [%] | activity in the developing phase (in words) [5] | Cholesterol [5] [mg/dL] | Cholesterol, Ratio of decrease [5] [%] | further results
1 | Cc1ccccc1CSC(=O)N[C@@H](Cc1ccccc1)C(=O)O [Compound 20, N-(2-methylbenzylthiocarbonyl)-L-phenylalanine] | > 1000 | 47 |  |  |  |  |  |  |  |  |  |  |  |  |  |  |  |  |  |  | Tonic convulsion (Mouse): +
2 | COC(=O)[C@H](Cc1ccccc1)NC(=O)SCc1ccc(C)cc1 [Compound 2, N-(4-methylbenzylthiocarbonyl)-L-phenylalanine methylester] | > 4000 | 38 | 8.2 | 17.5 | 3.9 | have a cholesterol-lowering activity | 9.7 | -7.3 | have an activity on lowering triglyceride and cholesterol | 47.5 | 15.7 | 261 | 41.3 | 116 | 22.2 | 205 | 40.9 | substantially equal | 202 | 21.3 | LD50 at 168 h (Acute toxicity in mice; [8]): > 100 mg/kg; activity in the decreasing phase (in words) [4]: superior to that of Clofibrate; LD50 at 168 h (Acute toxicity in rats; [9]): > 900 mg/kg; Triglyceride [5]: 729 mg/dL; Triglyceride, Ratio of decrease [5]: 45.5%; A - Ratio of decrease of triglyceride [6]: 2.1%; B - Ratio of decrease of phospholipid [6]: 10.9%; C - Ratio of decrease of free fatty acid [6]: 21.8%; lowering activity on lipids other than cholesterol (in words) [6]: have a lowering activity on lipids other than cholesterol
3 | Cc1cccc(CSC(=O)N[C@@H](Cc2ccccc2)C(=O)O)c1 [Compound 22, N-(3-methylbenzylthiocarbonyl)-L-phenylalanine] | > 1000 | 46 |  |  |  |  |  |  |  |  |  |  |  |  |  |  |  |  |  |  | Tonic convulsion (Mouse): +
4 | Cc1ccc(CSC(=O)N[C@@H](Cc2ccccc2)C(=O)O)cc1 [Compound 1, N-(4-methylbenzylthiocarbonyl)-L-phenylalanine] | > 4000 | 55 | 14.8 | 26.1 | 33.1 | have a cholesterol-lowering activity | 12.2 | 10.8 | have an activity on lowering triglyceride and cholesterol | 44.5 | 21.0 | 148 | 70.0 | 103 | 30.7 | 141 | 59.4 | substantially equal | 198 | 22.7 | LD50 at 168 h (Acute toxicity in mice; [8]): > 100 mg/kg; activity in the decreasing phase (in words) [4]: superior to that of Clofibrate; LD50 at 168 h (Acute toxicity in rats; [9]): > 200 mg/kg; Triglyceride [5]: 940 mg/dL; Triglyceride, Ratio of decrease [5]: 29.7%; A - Ratio of decrease of triglyceride [6]: 42.0%; B - Ratio of decrease of phospholipid [6]: 13.8%; C - Ratio of decrease of free fatty acid [6]: 27.0%; lowering activity on lipids other than cholesterol (in words) [6]: have a lowering activity on lipids other than cholesterol
5 | CCOC(=O)C(C)(C)Oc1ccc(Cl)cc1 [Clofibrate, reference compound] |  |  | 40.1 | 32.3 | 60.1 | have a cholesterol-lowering activity | 6.7 | 9.0 | have an activity on lowering triglyceride and cholesterol | 39.1 | 30.6 | 129 | 74.0 | 138 | 7.5 | 401 | -15.6 | substantially equal | 203 | 20.8 | LD50 at 168 h (Acute toxicity in mice; ip): 1620 mg/kg; LD50 at 168 h (Acute toxicity in mice; po): 2100 mg/kg; LD50 at 168 h (Acute toxicity in rats; po): > 200 mg/kg; inhibition in vivo at 100 mg/kg ([1]; 100 mg/kg oral, twice (0 and 20 hours after Triton 600 mg/kg i.v.), serum at 43 hours): 40%; Triglyceride [5]: 856 mg/dL; Triglyceride, Ratio of decrease [5]: 36.0%; A - Ratio of decrease of triglyceride [6]: 50.1%; B - Ratio of decrease of phospholipid [6]: 25.0%; C - Ratio of decrease of free fatty acid [6]: 26.7%
